In publication PMC3684770 (Free Radical Biology & Medicine, 2013):
pEC50, pIC50: −log10 of the molar value. Read-outs that look alike come from different tables or passages of the source.

Legend:
Nrf2-ARE pathway = experiment: ARE reporter assay in CHO 4xARE-TK-GFP cells (Spectrum library hits); conditions: for maximal fold induction: CHO, read-out: Fold GFP induction
Experimental: The Z′ score was calculated as follows Z′=1−(3SD^++3SD^−)/(Ave^+–Ave^−) where SD^+ = standard deviation of positive control wells; SD^− = standard deviation of negative control wells; Ave^+ = average fluorescence reading of positive control wells; Ave^− = average fluorescence reading of negative control wells.
Media was removed by hand and replaced (1 compound/well) with the Spectrum library diluted to 10 μM in 0.1% DMSO using a Q-bot liquid handling system (Genetix, New Milton, UK). […] The TK-GFP CHO ARE cell line was screened twice in a single point assay and the control TK-GFP CHO cell line was screened once to eliminate false positives.
The compounds were applied in triplicate to confluent cells in 96 well plates in serum free medium for 24 hours and the induction of GFP measured in a fluorescence plate reader.
In order to screen the Spectrum collection of 2000 molecules the reporter assay was optimised in […]. To assess the suitability of the assay for library screening, a Z’ score calculation was performed by treating alternate wells with vehicle (0.1% DMSO) and 10 µM Ebselen as a positive control (see calculation in Methods). […] The library was subsequently screened at a single point concentration of 10µM for every compound. Drug library dilutions and plating were performed with a Q-BOT liquid handling system and both the 4xARE-TK-GFP reporter cell line and TK-GFP control cell line were tested for their response to the compounds. Hits were identified as having data points more than three standard deviations above the background level, which was the average value of 24 wells treated with vehicle (0.1% DMSO) only. Hit compounds were checked to see if they generated a response in the control cell line, for example by non-specific activation of transcription or autofluorescence. […] The library screen was repeated once in the 4xARE –TK-CHO cell line and compounds classed as hits in both screens were taken forward for further assessment.

NSC34 cells [1] = experiment: NSC34 oxidative stress assay (serum withdrawal, DCF); conditions: for Emax: Mus musculus, NSC-34, 24 h, read-out: NSC34 oxidative stress assay Max reduction; for NSC34 oxidative stress assay Toxic dose: minimum dose at which toxicity was observed
Experimental: (§1) Media were then replaced with serum-free, phenol-free media for 5 h.

NSC34 cells [2] = tested on: NSC34 cells
Experimental: as §1

[3] = tested on: 1321N1 astrocyte cell line
Experimental: as §1

C6 astrocyte cell line [4] = experiment: C6 oxidative stress assay (serum withdrawal, DCF); conditions: for Emax: 24 h, read-out: C6 oxidative stress assay Max reduction; for pIC50: read-out: C6 oxidative stress assay IC50; for C6 oxidative stress assay Toxic dose: minimum dose at which toxicity was observed
Experimental: as §1

[5] = tested on: 1321N1 astrocyte cell line; experiment: 1321N1 oxidative stress assay (serum withdrawal, DCF); conditions: for Emax: 1321-N1, 24 h, read-out: 1321N1 oxidative stress assay Max reduction; for 1321N1 oxidative stress assay Toxic dose: minimum dose at which toxicity was observed
Experimental: as §1

C6 astrocyte cell line [6] = tested on: C6 astrocyte cell line
Experimental: as §1

[7] = lowest dose at which a reduction in GFP fluorescence was observed
[8] = Homo sapiens, 1321-N1, read-out: 1321N1 oxidative stress assay IC50
[9] = CHO ARE reporter, 7-point concentration response
[10] = maximum % inhibition of DCF signal, negative = prooxidant
[11] = maximum % inhibition of DCF signal
[12] = 24-h preconditioning, 6-h serum withdrawal, DCF fluorescence
[13] = average fold over baseline at the maximal response, CHO cells, 24 h

| Compound | pEC50 (Nrf2-ARE pathway; Cricetulus griseus) | Toxic dose (Nrf2-ARE pathway; [7]) | Emax (NSC34 cells [1]) [%] | Emax (C6 astrocyte cell line [4]; Rattus norvegicus, Astrocyte) [%] | pIC50 (C6 astrocyte cell line [4]; Rattus norvegicus, Astrocyte) | Emax ([5]; Homo sapiens) [%] | pIC50 [5, 8] | NSC34 oxidative stress assay Toxic dose (NSC34 cells [1]) | C6 oxidative stress assay Toxic dose (C6 astrocyte cell line [4]) | 1321N1 oxidative stress assay Toxic dose [5] | further results |
| --- | --- | --- | --- | --- | --- | --- | --- | --- | --- | --- | --- |
| CC(=O)CCC(=O)O [Levulinic acid] | 4.92 | None | 15 | 62 | 5.11 | 58 | 5.48 |  |  |  | NSC34 oxidative stress assay Toxic dose (NSC34 cells [2]): None; 1321N1 oxidative stress assay Toxic dose [3]: None; C6 oxidative stress assay Toxic dose (C6 astrocyte cell line [6]): None |
| C[C@@H]1C(=O)O[C@H]2[C@H]1CC[C@@]1(C)C=CC(=O)[C@@]3(C)O[C@@]213 [Epoxy(4,5α)-4,5-dihydrosantonin] |  |  |  |  |  |  |  |  |  |  | Fold GFP induction (Nrf2-ARE pathway): 2.91 fold; Toxic dose (Nrf2-ARE pathway): 100 µM; pEC50 (Nrf2-ARE pathway; [9]): 4.74; NSC34 oxidative stress assay Max reduction (NSC34 cells [1]; [10]): 0%; NSC34 oxidative stress assay Toxic dose (NSC34 cells [2]): 3 µM; 1321N1 oxidative stress assay Toxic dose [3]: None; C6 oxidative stress assay Max reduction (C6 astrocyte cell line [4]; [11]): 62%; pIC50 (C6 astrocyte cell line [4]; [12]): 5.67; 1321N1 oxidative stress assay Max reduction [5, 11]: 63%; pIC50 ([5]; read-out: 1321N1 oxidative stress assay IC50, 24-h preconditioning, 6-h serum withdrawal, DCF fluorescence): 6.18; C6 oxidative stress assay Toxic dose (C6 astrocyte cell line [6]): None |
| O=C(/C=C/c1ccc(O)cc1)c1ccc(O)cc1O [Isoliquiritigenin] | 5.60 | 30 µM | -6 | 46 | 4.55 | 50 | 5.75 | 1 µM | none | none |  |
| CC(=O)Oc1ccc(O)cc1 [4-Acetoxyphenol] | 5.54 | 100 µM | -70 | 0 |  | 42 | 6.53 | none | none | none |  |
| Cc1[nH]c2ccccc2c1CN(C)C [2-Methyl gramine] | 5.52 | 100 µM | -30 | 36 | 4.49 | 36 | 4.96 | 3 µM | none | none | maximal fold induction (Nrf2-ARE pathway; Cricetulus griseus, 24 h): 2.27 |
| C=C(C)/C=C1/C=CC(=O)C(C)=C1 [Retusoquinone] |  | 100 µM | -25 | 15 | 5.69 | 0 |  | none | none | none |  |
| S=C=NCc1ccccc1 [Benzyl isothiocyanate] | 4.62 | None | -28 | 27 | 5.46 | 8 |  | none | none | none |  |
| O=c1c2ccccc2[se]n1-c1ccccc1 [Ebselen, reference compound] | 5.40 | 100 µM | -80 | 30 |  | 20 | 6.71 | none | none | none | EC90 (Nrf2-ARE pathway; Cricetulus griseus, read-out: approximate EC90): ~10 µM |
| 3-α-Hydroxygedinin |  |  |  |  |  |  |  |  |  |  | Fold GFP induction (Nrf2-ARE pathway): 3.01 fold; NSC34 oxidative stress assay Max reduction (NSC34 cells [1]): 14%; C6 oxidative stress assay Max reduction (C6 astrocyte cell line [4]): 42%; pIC50 (C6 astrocyte cell line [4]): 5.49; 1321N1 oxidative stress assay Max reduction [5]: 25% |
| CC(C)N(C(=O)CCl)c1ccccc1 [Propachlor] | 5.83 | 100 µM | 0 | 74 | 6.19 | 50 | 6.08 | 10 µM | 10 µM | 10 µM | Fold GFP induction (Nrf2-ARE pathway; [13]): 3.25 fold |
| Methyl-7-deshydroxypyrogallin-4-carboxylate |  | 100 µM |  |  |  |  |  | 0.3 µM | none | none | pEC50 (Nrf2-ARE pathway; [9]): < 4.00; Fold GFP induction (Nrf2-ARE pathway; [13]): 2.83 fold; NSC34 oxidative stress assay Max reduction (NSC34 cells [1]; [10]): -23%; C6 oxidative stress assay Max reduction (C6 astrocyte cell line [4]; [11]): 70%; pIC50 (C6 astrocyte cell line [4]; [12]): 5.53; 1321N1 oxidative stress assay Max reduction [5, 11]: 45% |
| COC(=O)[C@H](O)[C@H]1C(C)(C)[C@H](OC(C)=O)[C@@H]2CC3=C4CC(=O)O[C@@H](c5ccoc5)[C@]4(C)CC[C@@H]3[C@@]1(C)C2=O [Swietenolide 3 acetate] | 5.46 | 100 µM | 0 | 50 | 5.37 | 60 |  | 0.3 µM | none | none | maximal fold induction (Nrf2-ARE pathway; Cricetulus griseus, 24 h): 2.82 |
| O=C(CC[N+](=O)[O-])OC[C@H]1O[C@@H](O)[C@H](OC(=O)CC[N+](=O)[O-])[C@@H](OC(=O)CC[N+](=O)[O-])[C@@H]1OC(=O)CC[N+](=O)[O-] [Endecaphyllin X] |  | None |  |  |  |  |  | 10 µM | none | none | pEC50 (Nrf2-ARE pathway; [9]): 4.73; Fold GFP induction (Nrf2-ARE pathway; [13]): 2.15 fold; NSC34 oxidative stress assay Max reduction (NSC34 cells [1]; [10]): 0%; C6 oxidative stress assay Max reduction (C6 astrocyte cell line [4]; [11]): 40%; pIC50 (C6 astrocyte cell line [4]; [12]): 5.50; 1321N1 oxidative stress assay Max reduction [5, 11]: 56% |
| C=CC(C1=CC(=O)C(OC)=CC1=O)c1ccccc1 (stereo not drawn) [4-Methoxydalbergione] |  | 100 µM | -44 | 14 | 5.60 | 43 |  | none | none | none | maximal fold induction (Nrf2-ARE pathway; Cricetulus griseus, 24 h): 2.11 |
| Cc1cc(O)c(C)c(O)c1C(=O)O [3-Methylorsellinic acid] | 5.02 | 100 µM | -12 | 56 | 5.51 | 53 | 5.49 | 0.3 µM | none | none |  |
| CC1(C)C(=O)C=C[C@]2(C)[C@H]3CC[C@@]4(C)[C@H](c5ccoc5)OC(=O)[C@H]5O[C@]54[C@]3(C)[C@H](O)C[C@@H]12 [Deacetylgedunin] | 5.46 | 30 µM | 0 | 70 | 5.27 | 28 | 5.63 | None | None | 10 µM | Fold GFP induction (Nrf2-ARE pathway; [13]): 3.05 fold |
| CC(=O)OC1CC[C@@]2(C)C(CC[C@H]3[C@@H]4CC=C(C(C)=O)[C@@]4(C)C(=O)C[C@@H]32)C1 (stereo partly drawn) [3 Acetoxypregn-16-en-12,20-dione] | 5.53 | 30 µM | 0 | 50 | 5.27 | 75 | 4.91 | None | None | None |  |
| ClC1=C(Cl)C2(Cl)C3C(Cl)C(Cl)CC3C1(Cl)C2(Cl)Cl (stereo not drawn) [Chlordane] | 5.04 | 100 µM | 0 | 20 | 5.45 | 68 |  | 3 µM | none | none | Fold GFP induction (Nrf2-ARE pathway; [13]): 1.56 fold |
| CC1=CC(=O)C(C(C)C)=CC1=O [Thymoquinone] |  | 30 µM | 0 | 32 | 7.85 | 25 | 4.96 | None | None | None |  |
